In patent US11718622B2, “Heterocyclic adenosine receptor antagonists” (Exelixis, Inc., priority 2020, dated 2023):

How the values were obtained:
[1] = target: Adenosine A2a (ADORA2A) receptor (Homo sapiens (Human), UniProt P29274); assay: ADORA2A Receptor Binding Assay; conditions: radioligand binding, membrane stock
Description: ADORA1A and ADORA2A Receptor Binding Assay
2 μL of each compound (test compounds, high control compound, low control compound) was transferred into individual wells of an assay plate. Also to each individual well, 98 μL of Adenosine A1a membrane stock (for ADORA1A Receptor Binding Assay) or Adenosine A2a membrane stock (for ADORA2A Receptor Binding Assay) was dispensed, followed by 100 μL of radio-labeled ligand. Plates were then sealed, and incubated at room temperature for 1 hour (for ADORA1A Receptor Binding Assay) or 2 hours (for ADORA2A Receptor Binding Assay). Unifilter-96 GF/C filter plates were pre-soaked with 50 μL of 0.3% PEI per well for at least 30 min at room temperature. When binding assays were completed, reaction mixtures were filtered through GF/C plates using a Perkin Elmer Filtermate Harvester, and then each plate was washed 4× with cold wash buffer. Filter plates were then dried for 1 hour at 50° C. After drying, the bottom of the filter plate wells was sealed using Perkin Elmer Unifilter-96 backing seal tape. 50 μL of Perkin Elmer Microscint 20 cocktail was then added, and the top of the filter plate was then sealed using Perkin Elmer TopSeal-A sealing film. ^3H trapped on the filter was counted using a Perkin Elmer MicroBeta2 Reader. Data analysis was performed using GraphPad Prism 5 software, and the “Inhibition [% Control]” was calculated using the following equation: % Inh=(1−Background subtracted Assay value/Background subtracted HC value)*100.

[2] = target: Adenosine A2B (ADORA2B) receptor (Homo sapiens (Human), UniProt P29275); assay: ADORA2B Receptor Binding Assay; conditions: radioligand binding, membrane stock
Sequence of Adenosine A2B (ADORA2B) receptor (P29275 whole entry): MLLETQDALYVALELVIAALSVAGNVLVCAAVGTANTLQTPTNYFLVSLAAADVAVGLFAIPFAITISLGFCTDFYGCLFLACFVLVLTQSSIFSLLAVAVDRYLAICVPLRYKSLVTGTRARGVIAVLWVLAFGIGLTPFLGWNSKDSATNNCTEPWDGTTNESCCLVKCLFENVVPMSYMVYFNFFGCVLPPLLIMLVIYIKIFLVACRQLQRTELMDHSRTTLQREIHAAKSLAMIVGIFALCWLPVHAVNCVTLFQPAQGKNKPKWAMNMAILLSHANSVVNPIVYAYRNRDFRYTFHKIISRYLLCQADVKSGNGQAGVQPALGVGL
Description: ADORA2B Receptor Binding Assay
100 μL of Adenosine A2B membrane stock was dispensed into individual wells of an assay plate. 1 μL of each compound (test compounds, high control compound, low control compound) was then transferred into individual wells, followed by 100 μL of radio-labeled ligand. Plates were then sealed, and incubated at room temperature for 1 hour. Unifilter-96 GF/C filter plates were pre-soaked with 50 μL of 0.5% BSA per well for at least 30 min at room temperature. When binding assays were completed, reaction mixtures were filtered through GF/C plates using a Perkin Elmer Filtermate Harvester, and then each plate was washed 4× with cold wash buffer. Filter plates were then dried for 1 hour at 50° C. After drying, the bottom of the filter plate wells was sealed using Perkin Elmer Unifilter-96 backing seal tape. 50 μL of Perkin Elmer Microscint 20 cocktail was then added, and the top of the filter plate was then sealed using Perkin Elmer TopSeal-A sealing film. ^3H trapped on the filter was counted using a Perkin Elmer MicroBeta2 Reader. Data analysis was performed using GraphPad Prism 5 software, and the “Inhibition[% Control]” was calculated using the following equation: % Inh=(1−Background subtracted Assay value/Background subtracted HC value)*100.

Sequence of Adenosine A2a (ADORA2A) receptor (P29274 whole entry): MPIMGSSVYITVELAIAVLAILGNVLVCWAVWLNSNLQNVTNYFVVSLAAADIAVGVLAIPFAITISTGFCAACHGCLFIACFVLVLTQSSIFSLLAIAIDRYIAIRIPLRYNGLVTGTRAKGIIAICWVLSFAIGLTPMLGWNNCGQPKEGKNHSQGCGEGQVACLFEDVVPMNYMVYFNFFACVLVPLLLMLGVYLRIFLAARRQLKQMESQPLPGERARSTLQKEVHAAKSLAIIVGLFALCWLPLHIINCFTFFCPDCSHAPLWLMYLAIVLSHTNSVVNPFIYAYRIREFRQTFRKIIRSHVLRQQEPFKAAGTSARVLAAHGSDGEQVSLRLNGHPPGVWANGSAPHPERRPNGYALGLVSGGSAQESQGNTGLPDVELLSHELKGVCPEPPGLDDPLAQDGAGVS

Structure (SMILES) | IC50 [1] | IC50 [2]
Cc1cn2c(Cl)c(N)nc(-c3ccccc3)c2n1 [Compound 201, 5-chloro-2-methyl-8-phenylimidazo[1,2-a]pyrazin-6-amine] | 10 to 100 nM | 100 to 1000 nM
CC(=O)c1cccc(-c2nc(NC(=O)OC(C)(C)C)cc3nc(C)nn23)c1 [Compound 94, tert-butyl N-[5-(3-acetylphenyl)-2-methyl-[1,2,4]triazolo[1,5-c]pyrimidin-7-yl]carbamate] | > 1000 nM | > 1000 nM
Cc1nc2cc(NC(=O)C3CC3)nc(-c3ccc(S(C)(=O)=O)cc3)n2n1 [Compound 99, A-[2-methyl-5-(4-methylsulfonylphenyl)-[1,2,4]triazolo[1,5-c]pyrimidin-7-yl]cyclopropanecarboxamide] | > 1000 nM | > 1000 nM
CCCC(=O)Nc1cn2cc(C)nc2c(-c2ccco2)n1 [Compound 222, N-[8-(furan-2-yl)-2-methylimidazo[1,2-a]pyrazin-6-yl]butanamide] | 10 to 100 nM | 100 to 1000 nM
Cc1nc2cc(NC(N)=O)nc(-c3ccco3)n2n1 [Compound 152, [5-(furan-2-yl)-2-methyl-[1,2,4]triazolo[1,5-c]pyrimidin-7-yl]urea] | 10 to 100 nM | 10 to 100 nM
CNC(=O)Nc1cn2cc(C)nc2c(-c2ccco2)n1 [Compound 217, 1-[8-(furan-2-yl)-2-methylimidazo[1,2-a]pyrazin-6-yl]-3-methylurea] | 10 to 100 nM | 10 to 100 nM
CC(=O)c1cccc(-c2nc(N)cc3nc(C)nn23)c1 [Compound 95, 1-[3-(7-amino-2-methyl-[1,2,4]triazolo[1,5-c]pyrimidin-5-yl)phenyl]ethanone] | > 1000 nM | > 1000 nM
Cc1nc2c(Cl)c(N)nc(-c3cccc(F)c3)n2n1 [Compound 146, 8-chloro-5-(3-fluorophenyl)-2-methyl-[1,2,4]triazolo[1,5-c]pyrimidin-7-amine] | < 10 nM | 10 to 100 nM
Cc1ccc(-c2nc(N)cn3ncnc23)o1 [Compound 166, 8-(5-methylfuran-2-yl)-[1,2,4]triazolo[1,5-a]pyrazin-6-amine] | 100 to 1000 nM | 100 to 1000 nM
CCS(=O)(=O)Nc1cn2cc(C)nc2c(-c2ccco2)n1 [Compound 225, N-[8-(furan-2-yl)-2-methylimidazo[1,2-a]pyrazin-6-yl]ethanesulfonamide] | 100 to 1000 nM | 100 to 1000 nM
Cc1nc2cc(NC(=O)NC(C)C)nc(-c3ccco3)n2n1 [Compound 163, 1-[5-(furan-2-yl)-2-methyl-[1,2,4]triazolo[1,5-c]pyrimidin-7-yl]-3-propan-2-ylurea] | < 10 nM | 10 to 100 nM
Cc1nc2cc(NC(=O)CF)nc(-c3ccco3)n2n1 [Compound 145, 2-fluoro-N-[5-(furan-2-yl)-2-methyl-[1,2,4]triazolo[1,5-c]pyrimidin-7-yl]acetamide] | 10 to 100 nM | 10 to 100 nM
CC(=O)Nc1cc2nc(C)nn2c(-c2cnco2)n1 [Compound 51, N-(2-methyl-5-(oxazol-5-yl)-[1,2,4]triazolo[1,5-c]pyrimidin-7-yl)acetamide] | 100 to 1000 nM | > 1000 nM
Cc1cn2cc(N)nc(-c3ccc(C)o3)c2n1 [Compound 200, 2-methyl-8-(5-methylfuran-2-yl)imidazo[1,2-a]pyrazin-6-amine] | 100 to 1000 nM | 100 to 1000 nM
Cc1nc2c(C(N)=O)c(N)nc(-c3ccc(C)o3)n2n1 [Compound 32, 7-amino-2-methyl-5-(5-methylfuran-2-yl)-[1,2,4]triazolo[1,5-c]pyrimidine-8-carboxamide] | 100 to 1000 nM | 100 to 1000 nM
CC(=O)Nc1cc2nc(C3CN(C)C3)nn2c(-c2ccco2)n1 [Compound 151, N-[5-(furan-2-yl)-2-(1-methylazetidin-3-yl)-[1,2,4]triazolo[1,5-c]pyrimidin-7-yl]acetamide] | 10 to 100 nM | > 1000 nM
Cc1nc2cc(NC(=O)C(F)F)nc(-c3ccco3)n2n1 [Compound 144, 2,2-difluoro-N-[5-(furan-2-yl)-2-methyl-[1,2,4]triazolo[1,5-c]pyrimidin-7-yl]acetamide] | < 10 nM | < 10 nM
CCOC(=O)Nc1cn2cc(C)nc2c(-c2ccco2)n1 [Compound 219, ethyl N-[8-(furan-2-yl)-2-methylimidazo[1,2-a]pyrazin-6-yl]carbamate] | 10 to 100 nM | 100 to 1000 nM
CC(=O)Nc1cc2nc(C)nn2c(-c2cnn(C)c2)n1 [Compound 71, N-[2-methyl-5-(1-methylpyrazol-4-yl)-[1,2,4]triazolo[1,5-c]pyrimidin-7-yl]acetamide] | > 1000 nM | > 1000 nM

Further lines, results first:

IC50 [1] | IC50 [2] | Structure (SMILES)
10 to 100 nM | 100 to 1000 nM | Cc1nc2cc(NC(=O)C3CC3)nc(-c3ccoc3)n2n1 [Compound 73, N-[5-(furan-3-yl)-2-methyl-[1,2,4]triazolo[1,5-c]pyrimidin-7-yl]cyclopropanecarboxamide]
< 10 nM | 10 to 100 nM | Cc1nc2cc(NC(=O)C3COC3)nc(-c3ccc(C)o3)n2n1 [Compound 60, N-[2-methyl-5-(5-methylfuran-2-yl)-[1,2,4]triazolo[1,5-c]pyrimidin-7-yl]oxetane-3-carboxamide]
< 10 nM | 10 to 100 nM | O=C(Nc1cc2nc(CF)nn2c(-c2ccco2)n1)C1CC1 [Compound 149, N-[2-(fluoromethyl)-5-(furan-2-yl)-[1,2,4]triazolo[1,5-c]pyrimidin-7-yl]cyclopropanecarboxamide]
< 10 nM | < 10 nM | Cc1ccc(-c2nc(NC(=O)C3CC3)cn3nc(C(F)F)nc23)o1 [Compound 185, N-[2-(difluoromethyl)-8-(5-methylfuran-2-yl)-[1,2,4]triazolo[1,5-a]pyrazin-6-yl]cyclopropanecarboxamide]
10 to 100 nM | 10 to 100 nM | Cc1ccc(-c2nc(NC(=O)C3CC3)cn3c(C)cnc23)o1 [Compound 196, N-[3-methyl-8-(5-methylfuran-2-yl)imidazo[1,2-a]pyrazin-6-yl]cyclopropanecarboxamide]
< 10 nM | 10 to 100 nM | Cc1ccc(-c2nc(NC(=O)C3CC3)cc3nc(-c4ccco4)nn23)o1 [Compound 67, N-[2-(furan-2-yl)-5-(5-methylfuran-2-yl)-[1,2,4]triazolo[1,5-c]pyrimidin-7-yl]cyclopropanecarboxamide]
< 10 nM | < 10 nM | CC(=O)Nc1cc2nc(C(F)(F)F)nn2c(-c2ccc(C)o2)n1 [Compound 41, N-[5-(5-methylfuran-2-yl)-2-(trifluoromethyl)-[1,2,4]triazolo[1,5-c]pyrimidin-7-yl]acetamide]
10 to 100 nM | > 1000 nM | Cc1nc2cc(NC(=O)C3CC3)nc(-c3ccc(C(C)(C)C)o3)n2n1 [Compound 43, N-[5-(5-tert-butylfuran-2-yl)-2-methyl-[1,2,4]triazolo[1,5-c]pyrimidin-7-yl]cyclopropanecarboxamide]
< 10 nM | < 10 nM | CC(=O)Nc1cn2nc(C)nc2c(-c2ccco2)n1 [Compound 179, N-[8-(furan-2-yl)-2-methyl-[1,2,4]triazolo[1,5-a]pyrazin-6-yl]acetamide]
< 10 nM | < 10 nM | Cc1ccc(-c2nc(NC(=O)C3CC3)cc3nc(C(F)(F)F)nn23)o1 [Compound 20, N-[5-(5-methylfuran-2-yl)-2-(trifluoromethyl)-[1,2,4]triazolo[1,5-c]pyrimidin-7-yl]cyclopropanecarboxamide]
